Among the data in PubChem BioAssay AID1159563 (GlaxoSmithKline (GSK), 2015) are IC50 values, retold here.

For orientation: IC50 means the midpoint of a concentration-inhibition curve. In general, pIC50 refers to −log10 of the IC50, conventionally taken in molar units.

pIC50: −log10 of the molar value. The source made the active and inactive calls. How the calls were made is not given here. A value given as a limit tells only on which side of the number the result lay.

The test system of the assay is HepG2 cytotoxicity. Kind of assay: human hepatoma cell viability loss – cytotoxicity control (AID 1159563).
For `COc1ccc(C2CC(c3ccccc3Cl)=NN2C(=O)CNC(=O)C2CCC2)cc1` (centres undefined), the IC50 is > 100 µM (inactive). With `O=S1N=C(NCCCN(Cc2ccc(F)cc2)c2ccccn2)C(NCc2ccncc2)=N1` (centres undefined), the pIC50 is 4.10. For the molecule `CC(C)C[C@H](NC(=O)c1ccc(-c2ccccc2)o1)C(=O)NC1(C#N)CC1`, the IC50 was > 100 µM (inactive). Same read-out and setting: then `CC(Cn1ccnc1)NC(=O)C1CC1c1cccc(Cl)c1Cl` (centres undefined), with > 100 µM (inactive).

Turning to `CNC(=O)C1Cc2ccccc2N1C(=O)Cc1ccc(F)cc1` (centres undefined), the IC50 was > 100 µM (inactive). As for `Cc1[nH]nc2c1C(c1ccc(OCc3ccccc3F)cc1)SCC(=O)N2` (centres undefined), the IC50 is > 100 µM (inactive). On to `COc1cc(-c2nc(N3CCOCC3)sc2-c2ccnc(NC3CCOCC3)n2)ccc1Cl`, for which the IC50 is > 100 µM (inactive). Turning to `COCc1cc(Nc2ccc(Cl)cc2)nc(-c2ccccn2)n1`, the pIC50 is 4.89. For `O=C(NCc1ccc(-n2cccc2)cc1)c1nc(Cn2ccc([N+](=O)[O-])n2)no1`, the IC50 is > 100 µM (inactive). Same read-out and setting: in the case of `COc1ccccc1C1CC(c2ccc(NS(C)(=O)=O)cc2)=NN1C(=O)c1cccs1` (centres undefined) it was > 100 µM (inactive). On the same count and under the same terms, then `COc1cnc2ccc(=O)n(CCN3CCC(NC(=O)c4ccc(Cl)cc4)CC3)c2c1`, with > 100 µM (inactive). Take `Cc1ccc2ccc(C(Nc3ccccn3)c3cccnc3)c(O)c2n1` (centres undefined): the pIC50 was 4.70. On to `CS(=O)(=O)c1ccc(Nc2nccc(Nc3n[nH]c4ccc(F)cc34)n2)c(F)c1`, for which the pIC50 was 4.10. Consider `O=C(NCc1ccc(Cl)cc1)C1CN(C(=O)c2ccc(F)cc2)CCS1` (centres undefined), for which the IC50 was > 100 µM (inactive). Still for that read-out and setting: in the case of `COc1ccc(C2CC(c3ccccc3Cl)=NN2C(=O)CNC(=O)C2CCCC2)cc1` (centres undefined) it was > 100 µM (inactive). Turning to `CCCc1nc2nc(N)nc(N)c2cc1CC`, the negative logarithm of the IC50 (pIC50) is 4.70. For the molecule `N#Cc1nc(C=Cc2ccccc2)oc1NCc1cccnc1`, the IC50 was > 100 µM (inactive). `O=C1CN(Cc2ccco2)C2CS(=O)(=O)CC2N1c1ccc(Cl)cc1` (centres undefined): the IC50 was > 100 µM (inactive).

Turning to `COC(=O)c1ccc(-c2cnc3ccc(NCc4ccccn4)nn23)cc1`, the pIC50 is 4.00. The same measure, in the same setting: in the case of `CCCN(Cc1ccc(OC)c(OC)c1)Cc1cc(=O)c2c(C)cc(C)cc2[nH]1` it was 4.20. Turning to `O=C(Nc1ccc(S(=O)(=O)N2CCCC2)cc1)c1ccc([N+](=O)[O-])s1`, the pIC50 is 5.20. On the same count and under the same terms, in the case of `CN(C)CCN(C)Cc1ccc(Cl)cc1NS(=O)(=O)c1ccc(Cl)c(Cl)c1` it was 4.49.

`O=S(=O)(c1cccc(CSc2nnc(-c3ccc4c(c3)OCO4)o2)c1)N1CCOCC1`: the IC50 is > 100 µM (inactive). Consider `NC(=O)c1ccccc1Nc1nc(NC2CCCCC2)nc2[nH]ccc12`, for which the pIC50 is 4.70. Regarding `NC(N)=Nc1nc(-c2ccc(NC(N)=NCCN3CCCC3)cc2)cs1`, the IC50 was > 100 µM (inactive).

`Cc1ccc(S(=O)(=O)Cn2nnnc2C(c2cccnc2)N2CCN(c3ccccc3)CC2)cc1` (centres undefined): the IC50 was > 100 µM (inactive). For `CCN(CC)c1nc(N(C)C)nc2c1CN(Cc1ccccc1)CC2`, the pIC50 is 4.20. `Cc1cccc(NS(=O)(=O)c2cnc3sc(C)cn3c2=O)c1`: the IC50 is > 100 µM (inactive). On to `Cc1cc(N(C)C)nc(Nc2ccccc2C)n1`, for which the pIC50 was 4.20. In the case of `Cc1nc(C(=O)Nc2ccc3c(c2)OCO3)nn1-c1ccc(Cl)cc1`, the IC50 was > 100 µM (inactive). Still for that read-out and setting: then `CCC(=O)Nc1ccccc1C(=O)Nc1ccccn1`, with > 100 µM (inactive). Take `CC(CNS(=O)(=O)c1ccc(OC(F)F)cc1)c1ccc(NC(=O)c2ccncc2)cc1` (centres undefined): the negative-log IC50 (pIC50) is 4.00. Regarding `CC(C)c1sc(Cl)nc1C(=O)NCCc1nc(C(=O)Nc2ccc3c(c2)OCO3)cs1`, the IC50 is > 100 µM (inactive). Turning to `Cc1cccnc1CN1CCN(CCCOc2ccc(-c3ccc(C(N)=O)cc3)cc2)CC1`, the IC50 is > 100 µM (inactive). With `Cc1nn(C)c(Cl)c1CN(Cc1cccnc1)Cc1ccsc1`, the IC50 is > 100 µM (inactive). On to `COc1ccc(-c2cc(C)no2)cc1S(=O)(=O)Nc1ccc(C)c(C)c1`, for which the IC50 is > 100 µM (inactive). On to `COc1ccc2ncc(Cl)c(CCN3CC[C@H](NCc4cc5c(cn4)OCS5)[C@@H](O)C3)c2n1`, for which the negative-log IC50 (pIC50) is 4.60. On the same count and under the same terms, then `COc1ccc(S(=O)(=O)NCc2ccc(-c3ccc(CN(C)CCO)cc3)cc2)cc1`, with 4.30.

Regarding `Clc1ccc(OCCN2CCCCC2c2cccnc2)c(Cl)c1` (centres undefined), the pIC50 was 4.10. For the molecule `COCCn1c(-c2ccc3c(c2)OCO3)cnc1NCc1ccccc1OC`, the pIC50 is 4.40.

Consider `Cc1[nH]c2ccccc2c(=O)c1Cc1c(C)[nH]c2ccccc2c1=O`, for which the IC50 is > 100 µM (inactive). Still for that read-out and setting: then `Cc1cc(Nc2ccc(C#N)c(Cl)c2C)n[nH]1`, with > 100 µM (inactive); and `O=C1NCc2cccc(Nc3nc(NC4CCC(O)CC4)ncc3Br)c21` (centres undefined), with > 100 µM (inactive).

For the molecule `CCC(=O)Nc1ccc(C(=O)Nc2ccccc2-c2ccccc2)cc1`, the IC50 was > 100 µM (inactive). `CC(C)(C)Nc1nc(Nc2ccc3c(c2)CS(=O)(=O)C3)nc2[nH]ccc12`: the pIC50 is 4.49. As to `O=C(Nc1nc(-c2ccc(F)cc2)cs1)c1ccc([N+](=O)[O-])s1`, the pIC50 was 4.89.

Take `O=C(COc1nn(-c2ccccc2)c2ncccc12)NCc1ccccc1`: the IC50 was > 100 µM (inactive).

With `Cc1ccccc1CNC(=O)CN(Cc1ccccn1)Cc1ccccn1`, the IC50 was > 160 µM (inactive). Take `N#Cc1ccc(S(=O)(=O)N2CCN(Cc3cccc(-c4ccncc4)c3)CC2)cc1`: the IC50 is > 100 µM (inactive). For `CC(C)Nc1nc(Cl)nc2ccccc12`, the negative-log IC50 (pIC50) was 4.40. For the molecule `COc1cccc(C(=O)[C@H]2C[C@@H]2CN(Cc2ccccn2)Cc2ccccn2)c1`, the IC50 was > 100 µM (inactive). On the same count and under the same terms, in the case of `Clc1ccc(C(CC2CCCCO2)Cn2cncn2)c(Cl)c1` (centres undefined) it was > 100 µM (inactive); in that of `COc1ccc2ncc(=O)n(CCN3CCOC(CNCc4ccc(C(F)(F)F)cc4F)C3)c2n1` (centres undefined), > 100 µM (inactive). With `O=C(Nc1ccc(C(F)(F)F)cc1)Nc1cccc([N+](=O)[O-])c1`, the negative-log IC50 (pIC50) was 5.00. On the same count and under the same terms, then `COc1cc(Cl)c(C)cc1NC(=O)c1ccc([N+](=O)[O-])s1`, with 4.49. As to `O=c1ccn(-c2ccc([N+](=O)[O-])cc2Cl)c2ccc(F)cc12`, the IC50 was > 100 µM (inactive). In the case of `O=C(CN(c1cccc(C(F)(F)F)c1)S(=O)(=O)c1ccc(Cl)cc1)NCc1ccc(F)c(F)c1`, the IC50 was > 100 µM (inactive). The same measure, in the same setting: then `C[C@@H](Oc1cc(-n2cnc3ccc(C(O)CO)cc32)sc1C(N)=O)c1ccccc1C(F)(F)F` (some centres undefined), with > 10 µM (inactive); and `O=C(CSc1nnc2ccc(-c3ccc(F)cc3)nn12)N1CCCCC1`, with > 100 µM (inactive). Turning to `O=C(Cc1ccccc1)Nc1[nH]nc2sc(C(=O)NC3CCCC3)cc12`, the pIC50 was 4.30.

`O=C(c1ccc(OCCCc2cnc[nH]2)cc1)C1CC1`: the IC50 is > 100 µM (inactive).

As for `CC(=O)Nc1ccc(-c2cnc(N)c(-c3nc4ccc(F)cc4[nH]3)c2)cc1`, the pIC50 was 5.00.

Regarding `Cc1ccc(NC(=O)c2ccc([N+](=O)[O-])s2)cc1S(=O)(=O)N1CCOCC1`, the pIC50 is 4.80.

As to `OC1CCC(Nc2nccc(-c3sc(C4CCOCC4)nc3-c3ccc(F)c(F)c3)n2)CC1` (centres undefined), the pIC50 was 4.60.
